Patent publication US20260285888A1, “HETEROCYCLIC COMPOUND AND USE THEREOF” (OTSUKA PHARMACEUTICAL CO., LTD., priority 2023, published 2026)

Experiment: Study for confirmation of conversion to brexpiprazole in a buffer (stability of the evaluation compounds)
Assay type: physicochemical
Details: in buffer, average of duplicate; for Concentration of brexpiprazole formed: 60-minute reaction sample; for Concentration of evaluation compound decreased: decrease in 60-minute vs 0-minute reaction sample
Method: The conversion from the evaluation compounds to brexpiprazole in a buffer (i.e., the stability of the evaluation compounds) was evaluated.
The Example 1 compound was dissolved in acetonitrile/water (1:1, v/v) to 10 mmol/L and further diluted with acetonitrile/water (1:1, v/v) to 100 μmol/L for use.
The other Example compounds and the Reference Example 5 compound to Reference Example 7 compound were each dissolved in DMSO to 10 mmol/L and further diluted with acetonitrile to 100 μmol/L for use, except for the following compounds.
The compounds of Examples 52, 95, 96, 117, and 130 (EX 52, EX 95, EX 96, EX 117, and EX 130) were dissolved in acetonitrile/water (8:2, v/v) to 10 mmol/L and further diluted with acetonitrile to 100 μmol/L for use.
The compound of Example 97 (EX 97) was dissolved in acetonitrile/water (8:2, v/v) to 10 mmol/L and further diluted with acetonitrile/water (8:2, v/v) to 100 μmol/L for use.
The compounds of Examples 15 and 116 (EX 15 and EX 116) were dissolved in DMSO to 1 mmol/L and further diluted with acetonitrile to 100 μmol/L for use.
The reaction was conducted by preparing each reaction solution such that the final concentration of each component was as follows. The test was conducted in duplicate.
For the compounds of Examples 1 to 8, 10 to 19, 26 to 27, 37, 50, 87 to 89, 91, 116, 121, 123, 150, and 151 (EX 1 to EX 8, EX 10 to EX 19, EX 26 to EX 27, EX 37, EX 50, EX 87 to EX 89, EX 91, EX 116, EX 121, EX 123, EX 150, and EX 151), and the compounds of Reference Examples 5 to 7 (REX 5 to REX 7), the reaction solution without the evaluation compound (198 μl) was pre-incubated at 37° C. for 3 minutes, and then each of the evaluation compound solutions (2 μl) was added and stirred; thereafter, the reaction was started at 37° C. At 0 minutes or 60 minutes after the start of the reaction, the reaction was stopped by adding and stirring a reaction stop solution (1000 μl) composed of acetonitrile/isopropanol (4:1, v/v) containing internal standard substances. However, the 0-minute reaction sample (198 μl) was prepared by adding the evaluation compound (2 μl) after adding the reaction stop solution (1000 μl). The samples after stopping the reaction were used as the measurement samples. Calibration curve samples with the same composition were prepared (final concentrations of the evaluation compounds and brexpiprazole: 0.01, 0.1, and 1 μmol/L, with the proviso that for the evaluation compounds only, the 0-minute reaction samples were also used as calibration curve samples for 1 μmol/L).
For the compounds of Examples 24 to 25, 28 to 29, 32 to 36, 40 to 49, 51 to 60, 62 to 64, 66 to 77, 80 to 86, 90, 92 to 111, 113, 115, 117 to 120, 122, 124 to 130, 132 to 147, and 152 to 160 (EX 24 to EX 25, EX 28 to EX 29, EX 32 to EX 36, EX 40 to EX 49, EX 51 to EX 60, EX 62 to EX 64, EX 66 to EX 77, EX 80 to EX 86, EX 90, EX 92 to EX 111, EX 113, EX 115, EX 117 to EX 120, EX 122, EX 124 to EX 130, EX 132 to EX 147, and EX 152 to EX 160), the reaction solution without the evaluation compound (148.5 μl) was pre-incubated at 37° C. for 3 minutes, and then each of the evaluation compound solutions (1.5 μl) was added and stirred; thereafter, the reaction was started at 37° C. At 0 minutes or 60 minutes after the start of the reaction, the reaction was stopped by adding and stirring a reaction stop solution (600 μl) composed of acetonitrile/isopropanol (4:1, v/v) containing internal standard substances. However, the 0-minute reaction sample (148.5 μl) was prepared by adding the evaluation compound (1.5 μl) after adding the reaction stop solution (600 μl). The samples after stopping the reaction were used as the measurement samples. Calibration curve samples with the same composition were prepared (final concentrations of the evaluation compounds and brexpiprazole: 0.01, 0.1, and 1 μmol/L, with the proviso that for the evaluation compounds only, the 0-minute reaction samples were also used as calibration curve samples for 1 μmol/L). […]

SMILES	Concentration of brexpiprazole formed [nM]	Concentration of evaluation compound decreased [nM]
CC(C)(C)OC(=O)CCCC(=O)OCOP(=O)([O-])OC[N+]1(CCCCOc2ccc3ccc(=O)[nH]c3c2)CCN(c2cccc3sccc23)CC1 [EX 69, (4-(benzo[b]thiophen-4-yl)-1-(4-((2-oxo-1,2-dihydroquinolin-7-yl)oxy)butyl)piperazin-1-ium-1-yl)methyl (((5-(tert-butoxy)-5-oxopentanoyl)oxy)methyl) phosphate]	0	-10
COc1ccc(COC(=O)CC(C)(C)CC(=O)OCOP(=O)([O-])OC[N+]2(CCCCOc3ccc4ccc(=O)[nH]c4c3)CCN(c3cccc4sccc34)CC2)cc1 [EX 72, (4-(benzo[b]thiophen-4-yl)-1-(4-((2-oxo-1,2-dihydroquinolin-7-yl)oxy)butyl)piperazin-1-ium-1-yl)methyl (((5-((4-methoxybenzyl)oxy)-3,3-dimethyl-5-oxopentanoyl)oxy)methyl) phosphate]	0	150
CC1(C)OCC(COC(=O)CCCCC(=O)OCOP(=O)([O-])OC[N+]2(CCCCOc3ccc4ccc(=O)[nH]c4c3)CCN(c3cccc4sccc34)CC2)CO1 [EX 75, (4-(benzo[b]thiophen-4-yl)-1-(4-((2-oxo-1,2-dihydroquinolin-7-yl)oxy)butyl)piperazin-1-ium-1-yl)methyl (((6-((2,2-dimethyl-1.3-dioxan-5-yl)methoxy)-6-oxohexanoyl)oxy)methyl) phosphate]	0	70
CC(C)NC(=O)CCCCCCCCC(=O)OCOP(=O)([O-])OC[N+]1(CCCCOc2ccc3ccc(=O)[nH]c3c2)CCN(c2cccc3sccc23)CC1 [EX 76, (4-(benzo[b]thiophen-4-yl)-1-(4-((2-oxo-1,2-dihydroquinolin-7-yl)oxy)butyl)piperazin-1-ium-1-yl)methyl (((10-(isopropylamino)-10-oxodecanoyl)oxy)methyl) phosphate]	0	0
O=C(OCCCCCCOP(=O)([O-])OC[N+]1(CCCCOc2ccc3ccc(=O)[nH]c3c2)CCN(c2cccc3sccc23)CC1)c1ccc([N+](=O)[O-])cc1 [EX 85, (4-(benzo[b]thiophen-4-yl)-1-(4-((2-oxo-1,2-dihydroquinolin-7-yl)oxy)butyl)piperazin-1-ium-1-yl)methyl (6-((4-nitrobenzoyl)oxy)hexyl) phosphate]	0	40
COP(=O)([O-])OC[N+]1(CCCCOc2ccc3ccc(=O)[nH]c3c2)CCN(c2cccc3sccc23)CC1 [EX 87, (4-(benzo[b]thiophen-4-yl)-1-(4-((2-oxo-1,2-dihydroquinolin-7-yl)oxy)butyl)piperazin-1-ium-1-yl)methyl methyl phosphate]	0	0

The remaining lines, values ahead:

Concentration of brexpiprazole formed [nM]	Concentration of evaluation compound decreased [nM]	SMILES
0	130	CC(C)NC(=O)CCCC(=O)OCOP(=O)([O-])OC[N+]1(CCCCOc2ccc3ccc(=O)[nH]c3c2)CCN(c2cccc3sccc23)CC1 [EX 73, (4-(benzo[b]thiophen-4-yl)-1-(4-((2-oxo-1,2-dihydroquinolin-7-yl)oxy)butyl)piperazin-1-ium-1-yl)methyl (((5-(isopropylamino)-5-oxopentanoyl)oxy)methyl) phosphate]
0	50	O=c1ccc2ccc(OCCCC[N+]3(COP(=O)([O-])OC[C@H]4CC[C@H](CO)CC4)CCN(c4cccc5sccc45)CC3)cc2[nH]1 [EX 86, (4-(benzo[b]thiophen-4-yl)-1-(4-((2-oxo-1,2-dihydroquinolin-7-yl)oxy)butyl)piperazin-1-ium-1-yl)methyl (((1r,4r)-4-(hydroxymethyl)cyclohexyl)methyl) phosphate]
0	-10	CCCOP(=O)([O-])OC[N+]1(CCCCOc2ccc3ccc(=O)[nH]c3c2)CCN(c2cccc3sccc23)CC1 [EX 88, (4-(benzo[b]thiophen-4-yl)-1-(4-((2-oxo-1,2-dihydroquinolin-7-yl)oxy)butyl)piperazin-1-ium-1-yl)methyl propyl phosphate]
0	-70	CCCCOP(=O)([O-])OC[N+]1(CCCCOc2ccc3ccc(=O)[nH]c3c2)CCN(c2cccc3sccc23)CC1 [EX 89, (4-(benzo[b]thiophen-4-yl)-1-(4-((2-oxo-1,2-dihydroquinolin-7-yl)oxy)butyl)piperazin-1-ium-1-yl)methyl butyl phosphate]
0	-20	CCOCCOC(=O)[C@@H](C)OP(=O)([O-])OC[N+]1(CCCCOc2ccc3ccc(=O)[nH]c3c2)CCN(c2cccc3sccc23)CC1 [EX 109, (R)-(4-(benzo[b]thiophen-4-yl)-1-(4-((2-oxo-1.2-dihydroquinolin-7-yl)oxy)butyl)piperazin-1-ium-1-yl)methyl (1-(2-ethoxyethoxy)-1-oxopropan-2-yl) phosphate]
0	50	O=c1ccc2ccc(OCCCC[N+]3(COP(=O)([O-])OCC(F)F)CCN(c4cccc5sccc45)CC3)cc2[nH]1 [EX 115, (4-(benzo[b]thiophen-4-yl)-1-(4-(2-oxo-1,2-dihydroquinolin-7-yl)oxy)butyl)piperazin-1-ium-1-yl)methyl (2,2-difluoroethyl) phosphate]
0	90	CCCC(=O)OCOP(=O)([O-])OC[N+]1(CCCCOc2ccc3ccc(=O)[nH]c3c2)CCN(c2cccc3sccc23)CC1 [EX 121]
0	50	CCC(C)(C)C(=O)OCOP(=O)([O-])OC[N+]1(CCCCOc2ccc3ccc(=O)[nH]c3c2)CCN(c2cccc3sccc23)CC1 [EX 122, (4-(benzo[b]thiophen-4-yl)-1-(4-((2-oxo-1,2-dihydroquinolin-7-yl)oxy)butyl)piperazin-1-ium-1-yl)methyl (((2,2-dimethylbutanoyl)oxy)methyl) phosphate]
0	100	O=C(OCOP(=O)([O-])OC[N+]1(CCCCOc2ccc3ccc(=O)[nH]c3c2)CCN(c2cccc3sccc23)CC1)C12CC3CC(CC(C3)C1)C2 [EX 124, (((1s,3s)-adamantane-1-carbonyl)oxy)methyl ((4-(benzo[b]thiophen-4-yl)-1-(4-((2-oxo-1,2-dihydroquinolin-7-yl)oxy)butyl)piperazin-1-ium-1-yl)methyl) phosphate]
260	200	CCC(=O)OC[N+]1(CCCCOc2ccc3ccc(=O)[nH]c3c2)CCN(c2cccc3sccc23)CC1.[I-] [REX 5, 4-(Benzo[b]thiophen-4-yl)-1-(4-((2-oxo-1,2-dihydroquinolin-7-yl)oxy)butyl)-1-((propionyloxy)methyl)piperazin-1-ium iodide, reference compound]
